The text below walks through data of patent US20230255954A1, “INTERLEUKIN 33 (IL-33) INHIBITION FOR TREATMENT OF CANCER, FIBROSIS AND INFLAMMATION” (The General Hospital Corporation, priority 2020, published 2023).

In test [1] the test system is Il33 expression induced by Poly (I:C) in Pam212 cells. Nature of the test: Il33 RNA by qPCR in Poly (I:C)-treated Pam212 cells. The class given is cell-based, mouse. The protocol: Pam212 cells were grown at 37° C. in DMEM (Thermo Fisher Scientific, Waltham, Mass., catalog no. 11995065) supplemented with 10% fetal bovine serum (Thermo Fisher Scientific, catalog no. 26140079), 1× penicillin-streptomycin-glutamine (Thermo Fisher Scientific, catalog no. 10378016), 1×MEM non-essential amino acids solution (Thermo Fisher Scientific, catalog no. 11140050), 1×HEPES (Thermo Fisher Scientific, catalog no. 15630080) and 0.1% 2-Mercaptoethanol (Thermo Fisher Scientific, catalog no. 21985023). […]
Mouse dorsal skin samples were homogenized and lysed in RLT lysis solution (QIAGEN, catalog no. 79216)/0.1% MeOH using Mini-BeadBeater-8 (BioSpec Products, Inc., Bartlesville, Okla.). Total RNA was extracted using an RNeasy micro kit and quantified using NanoDrop ND-1100 (NanoDrop Technologies, Wilmington, Del.). cDNA samples were synthesized from 1 μg of total RNA using Invitrogen SuperScripts III Reverse Transcriptase (Thermo Fisher Scientific, catalog no. 18080085). Expression levels of all cDNA samples were determined with LightCycler 480 system (Roche Molecular Systems Inc., Pleasanton, Calif.) using TaqMan Universal Master Mix II (Thermo Fisher Scientific, catalog no. 44-400-40). […]
In general terms: Real-time PCR tracks product formation cycle by cycle.

Test [2] deals with DNFB treated mice back skin. Nature of the test: DNFB chronic skin inflammation model with pitavastatin. In kind it is in vivo, mouse. The protocol: Four- to six-week old male and female mice were shaved on their abdomen and sensitized to 50 μL 0.5% 1-Fluoro-2,4-dinitrobenzene (DNFB, Millipore Sigma, St. Louis, Mo., catalog no. 42085) dissolved in acetone plus olive oil at 3:1 ratio (refer to as acetone). Two days after first sensitization, mice were re-sensitized to 50 μL 0.25% DNFB on their abdomen. After 5 days, mice were challenged with 100 μL 0.25% DNFB on their back skin, which was repeated three times per week for 22 days. Skin rash was monitored over the duration of the study.
Mice were treated with 0.5 mM pitavastatin in 200 μL 70% ethanol or 200 μL 70% ethanol alone to their back skin twice a week. Pitavastatin/70% ethanol treatments were given in DNFB doses.
Tissue samples were collected and fixed in 4% paraformaldehyde (Millipore Sigma, catalog no. P6148) overnight at 4° C. Next, tissues were dehydrated in ethanol, processed and embedded in paraffin. 5 μm sections paraffin-embedded tissues were placed on slides, deparaffinized and stained with H&E or toluidine blue (for mast cell detection). For immunohistochemistry, antigen retrieval was performed in 500 μL of antigen unmasking solution (VECTOR Laboratories, Burlingame, Calif., catalog no. H3300) diluted in 50 mL water using Cuisinart pressure cooker for 20 min at high pressure. Slides were washed three times for three minutes each in 1×TBS with 0.025% Triton X-100. Sections were blocked with 1% bovine serum albumin (Thermo Fisher Scientific, catalog no. BP1600) and 5% goat serum (Millipore Sigma, catalog no. G9023) for 1 hour. Slides were stained overnight at 4° C. with a primary antibody diluted in TBS containing 1% BSA (Appendix Table S2). The following day, slides were washed as above and incubated in 100 μL biotinylated secondary antibody (VECTOR Laboratories, catalog no. PK-6200) for 30 min. After washing, slides were incubated with 100 μL mixture of reagent A and B from VECTASTAIN Elite ABC universal kit Peroxidase (VECTOR Laboratories, catalog no. PK-6200) for 30 min. After washing, slides were incubated with 100 μL ImmPACT DAB chromogen stating (VECTOR Laboratories, catalog no. SK-4105) for a few minutes. Finally, slides dehydrated in ethanol and xylene and mounted with a coverslip using 3 drops of mounting media.
Next, we also investigated effect of pitavastatin in vivo chronic inflammation model. […] Next, we studied the effect of pitavastatin treatment on chronic inflammation in mice. […] Furthermore, both IL-33 and nuclear IRF3 were reduced in same epithelial region of DNFB plus pitavastatin versus DNFB plus carrier treated mice (FIGS. 12D and E). Thus, pitavastatin is a small molecule IL-33 inhibitor that suppresses skin inflammation.

[3] abbreviates: DNFB plus pitavastatin versus DNFB plus carrier.
Setting [4] is: topical DNFB plus pitavastatin vs DNFB plus carrier.

Turning to `O=C(O)C[C@H](O)C[C@H](O)/C=C/c1c(C2CC2)nc2ccccc2c1-c1ccc(F)cc1` [pitavastatin], the “Il33 RNA level” value in test [1] is reported as “decreased”. Besides, in test [2] (0.5 mM pitavastatin in 200 μL 70% ethanol on back skin twice a week, compared to only DNFB treated mice), the “chronic inflammation in back skin” value was “mild chronic inflammation”. In addition, in test [2] (setting [3]), the “IL-33 in epithelial region (staining)” value is “reduced” and the “nuclear IRF3 in epithelial region (staining)” value was “reduced”. In test [2] (DNFB treated mice skin), the “IL-33 expression, RNA level” value is on record as “decreased” and the “IL-33 expression, protein level” value is on record as “decreased”. Also, in test [2] (compared to only DNFB treated group), the p-IRF3 entry is given as “decreased”. In addition, in test [2] (setting [4]), the epidermal thickness result is recorded as “reduced” and the mast cell infiltration result was “reduced”.
